This passage reports IC50 results from patent US20240228512A1, “ACYCLIC OXAZEPINE COMPOUNDS COMPRISING A 6-AZA MOIETY AND USES THEREOF” (Genentech, Inc., priority 2022, published 2024).

Test [1] has as its target recombinant human KRAS wild type (SOS1-mediated nucleotide exchange) (Homo sapiens (Human), UniProt P01116). As to the kind of experiment: KRAS biochemical assay, BODIPY-GDP exchange TR-FRET (WT-GDP HTRF).
The target in test [2] is recombinant human mutant KRas G12V (SOS1-mediated nucleotide exchange) (Homo sapiens (Human), UniProt P01116, G12V). As to the kind of experiment: KRAS biochemical assay, BODIPY-GDP exchange TR-FRET (G12V-GDP HTRF).
The test system of the next test is SW620 cells. As to the kind of experiment: SW620 3D proliferation assay (CellTiter-Glo). The test is classed as cell-based. The following applies: Homo sapiens, SW-620, 168 h, SW620, 3D culture, 7 days, read-out: SW620 CTG IC50. The procedure, abridged: (§1)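 Cells were seeded in ultra-low attachment plates (3000 or 1000 cells/well for 96- or 384-well format) in RPMI-1640, 10% FBS, 2 mM L-glutamine and cultured overnight at 37 °C/5% CO2 to form spheroids. Compounds were added by 333-fold dilution from DMSO for 7 days. Viability was read as CellTiter-Glo 3D ATP luminescence, with IC50 from a 4-parameter logistic fit.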
(ATP-based viability assays read luminescence as a measure of living cells.)

A further test relates to H1975 cells. Kind of test: H1975 CTG proliferation assay. The test is classed as cell-based. The following applies: Homo sapiens, NCI-H1975, H1975, CTG.
The next test deals with HPAC cells. As to the kind of experiment: HPAC 3D proliferation assay (CellTiter-Glo). The test is classed as cell-based. The following applies: Homo sapiens, 168 h, 3D culture, 7 days, read-out: HPAC CTG IC50. The procedure, abridged: as §1
A further test deals with SW480 cells. Kind of test: SW480 CTG proliferation assay. The test is classed as cell-based. The following applies: Homo sapiens.
The subject of a further test is SW620 PERK. Kind of test: SW620 PERK assay. The test is classed as cell-based. The following applies: Homo sapiens, SW-620, SW620, PERK.

Sequence of recombinant human KRAS wild type (SOS1-mediated nucleotide exchange) (P01116-2 other isoform, or with tags, fused parts or gaps): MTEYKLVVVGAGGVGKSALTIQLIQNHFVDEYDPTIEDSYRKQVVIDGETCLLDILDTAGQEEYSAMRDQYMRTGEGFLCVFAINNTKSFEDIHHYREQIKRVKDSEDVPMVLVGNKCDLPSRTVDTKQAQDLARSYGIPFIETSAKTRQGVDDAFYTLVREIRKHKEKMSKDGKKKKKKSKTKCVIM
Sequence of recombinant human mutant KRas G12V (SOS1-mediated nucleotide exchange) (P01116-2 other isoform, or with tags, fused parts or gaps G12V): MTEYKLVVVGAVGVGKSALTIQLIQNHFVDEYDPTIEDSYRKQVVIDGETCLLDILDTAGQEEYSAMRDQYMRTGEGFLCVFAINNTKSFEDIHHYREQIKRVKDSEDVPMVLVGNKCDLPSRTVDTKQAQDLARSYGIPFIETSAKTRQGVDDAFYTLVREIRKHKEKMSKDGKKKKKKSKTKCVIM

Regarding `Cc1c(F)c(N)c(F)c(-c2nc3c4c(nc(OC[C@@]56CCCN5C[C@H](F)C6)nc4c2Cl)N([C@H](C)c2cccnc2N)CCO3)c1C(F)(F)F` (atropisomer, axis not shown; (aS)) [Example 629a, 3-((R)-1-((R)-5-(3-amino-2,4-difluoro-5-methyl-6-(trifluoromethyl)phenyl)-4-chloro-2-(((2R,7aS)-2-fluorotetrahydro-1H-pyrrolizin-7a(5H)-yl)methoxy)-8,9-dihydro-10H-7-oxa-1,3,6,10-tetraazacyclohepta[de]naphthalen-10-yl)ethyl)pyridin-2-amine], the IC50 (as a rule, the concentration at which inhibition is half-maximal) is 0.178 nM in test [1]; 0.069 nM in test [2]; 1.71 nM with SW620 cells; 176 nM in the test with H1975 cells; 15.3 nM with HPAC cells; 20 nM in the test with SW480 cells. Further, it took 1.33 nM to reach half-maximal inhibition in the test with SW620 PERK (IC50).

In the case of `C[C@H](c1cccnc1N)N1CCOc2nc(-c3cc(O)cc4ccccc34)c(F)c3nc(OC[C@@]45CCCN4C[C@H](F)C5)nc1c23` [Example 26, 4-(10-((R)-1-(2-aminopyridin-3-yl)ethyl)-4-fluoro-2-(((2R,7aS)-2-fluorotetrahydro-1H-pyrrolizin-7a(5H)-yl)methoxy)-9,10-dihydro-8H-7-oxa-1,3,6,10-tetraazacyclohepta[de]naphthalen-5-yl)naphthalen-2-ol], the IC50 in test [1] was 0.26 nM; in test [2], 0.11 nM; with SW620 cells, 32.3 nM; with H1975 cells it was 77 nM; in the test on HPAC cells, 416 nM; in the test with SW480 cells, 350 nM. In the test on SW620 PERK, this compound registered an IC50 of 19.3 nM.

As for `Cc1cc(N)nc(-c2nc3c4c(nc(OC[C@@]56CCCN5C[C@H](F)C6)nc4c2F)N([C@H](C)c2cccnc2N)CCO3)c1C(F)(F)F` [Example 6, 6-(10-((R)-1-(2-aminopyridin-3-yl)ethyl)-4-fluoro-2-(((2R,7aS)-2-fluorotetrahydro-1H-pyrrolizin-7a(5H)-yl)methoxy)-9,10-dihydro-8H-7-oxa-1,3,6,10-tetraazacyclohepta[de]naphthalen-5-yl)-4-methyl-5-(trifluoromethyl)pyridin-2-amine], the half-maximal inhibitory concentration (IC50) in test [1] amounted to 0.215 nM; in test [2], 0.21 nM; in the test on SW620 cells it was 13.4 nM; with H1975 cells it was 7.23 nM; in the test on HPAC cells it was 43.7 nM; in the test on SW480 cells, 120 nM. The compound further came in with an IC50 in the test with SW620 PERK of 7.68 nM.

For `Cc1c(F)c(N)cc(-c2nc3c4c(nc(OC[C@@]56CCCN5C[C@H](F)C6)nc4c2F)N([C@H](C)c2cccnc2N)CCO3)c1C(F)(F)F` [Example 5, 3-((R)-1-(5-(5-amino-4-fluoro-3-methyl-2-(trifluoromethyl)phenyl)-4-fluoro-2-(((2R,7aS)-2-fluorotetrahydro-1H-pyrrolizin-7a(5H)-yl)methoxy)-8,9-dihydro-10H-7-oxa-1,3,6,10-tetraazacyclohepta[de]naphthalen-10-yl)ethyl)pyridin-2-amine], the IC50 in test [1] is 0.0529 nM; in test [2] it was 0.045 nM; with SW620 cells it was 1.14 nM; in the test with H1975 cells it was 12.8 nM; in the test with HPAC cells, 5.06 nM; in the test on SW480 cells, 5.8 nM. The same compound had an IC50 with SW620 PERK of 0.72 nM.
